Reference: US10501421B1, “Substituted benzimidazoles as modulators of Ras signaling” (VANDERBILT UNIVERSITY, priority 2017, dated 2019)
Counter-ions that a name gives are not always drawn.

Tests used:
Son of Sevenless (SOS) = target: T1, Son of Sevenless (SOS) (Homo sapiens, UniProt Q07889); test: Binding to SOS, fluorescence polarization anisotropy (FPA) probe displacement; settings: displacement of FITC-conjugated probe (Example 285), affinity calculated from IC50
T1 sequence (Q07889 564-1049 limits assumed): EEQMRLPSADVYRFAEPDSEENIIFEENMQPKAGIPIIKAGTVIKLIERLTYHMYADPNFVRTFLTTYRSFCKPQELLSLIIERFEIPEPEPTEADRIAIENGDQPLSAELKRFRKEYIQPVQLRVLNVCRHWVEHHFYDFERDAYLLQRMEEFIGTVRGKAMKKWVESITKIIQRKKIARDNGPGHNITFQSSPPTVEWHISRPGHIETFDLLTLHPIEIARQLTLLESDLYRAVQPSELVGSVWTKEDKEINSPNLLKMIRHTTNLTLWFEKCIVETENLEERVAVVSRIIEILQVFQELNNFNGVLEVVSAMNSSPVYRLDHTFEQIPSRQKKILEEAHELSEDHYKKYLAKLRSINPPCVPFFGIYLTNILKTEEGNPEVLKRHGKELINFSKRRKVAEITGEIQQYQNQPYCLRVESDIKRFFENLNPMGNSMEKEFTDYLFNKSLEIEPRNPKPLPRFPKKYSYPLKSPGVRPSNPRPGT
In short: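 Test compounds were titrated against SOS pre-bound to a fluorescein-labelled probe, with anisotropy plotted versus compound concentration. Binding affinities were derived from IC50 values obtained by four-parameter dose-response fitting.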

[1] = target: Ras GEF SOS (Son of Sevenless) (Homo sapiens, UniProt Q07889); test: SOS-mediated nucleotide exchange on Ras (BODIPY-GDP fluorescence); type: biochemical; settings: SOS-mediated exchange of BODIPY-GDP for GTP on Ras
Ras GEF SOS (Son of Sevenless), sequence (P01112 1-166 partner limits assumed, one chain of several): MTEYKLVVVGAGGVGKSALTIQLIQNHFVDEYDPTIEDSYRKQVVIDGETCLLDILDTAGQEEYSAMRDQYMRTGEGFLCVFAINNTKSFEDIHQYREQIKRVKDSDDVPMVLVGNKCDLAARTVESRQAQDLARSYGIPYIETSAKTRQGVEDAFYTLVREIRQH
In short: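 Exchange rates were taken from single-exponential fits of the fluorescence time course as BODIPY-GDP on Ras was replaced by GTP. Compound went in first, then GTP and SOS. Mean rates plotted against concentration gave EC50 by four-parameter dose-response fitting.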

| SMILES | Ki (Son of Sevenless (SOS)) | EC50 [1] |
| --- | --- | --- |
| Cc1cc(NCCCCN(C)C)c2nc(N3CCNCC3)n(Cc3cc(C)c(F)c(C)c3)c2c1 [Example 196, N^1-(1-(4-fluoro-3,5-dimethylbenzyl)-6-methyl-2-(piperazin-1-yl)-1H-benzo[d]imidazol-4-yl)-N^4,N^4-dimethylbutane-1,4-diamine trifluoroacetate] | 0.5 to 1 µM | 1 to 5 µM |
| Cc1cc(NCCCN(C)C)c2nc(N3CCNCC3)n(Cc3cc(C)c(F)c(C)c3)c2c1 [Example 197, N^1-(1-(4-fluoro-3,5-dimethylbenzyl)-6-methyl-2-(piperazin-1-yl)-1H-benzo[d]imidazol-4-yl)-N^3,N^3-dimethylpropane-1,3-diamine trifluoroacetate] | 0.5 to 1 µM | 1 to 5 µM |
| Cc1cc(NC[C@H]2CCNC2)c2nc(N3CCNCC3)n(Cc3cc(C)c(F)c(C)c3)c2c1 [Example 198, (S)-1-(4-fluoro-3,5-dimethylbenzyl)-6-methyl-2-(piperazin-1-yl)-N-(pyrrolidin-3-ylmethyl)-1H-benzo[d]imidazol-4-amine trifluoroacetate] | 0.5 to 1 µM | 1 to 5 µM |
| Cc1cc(OCCN2CCN(C)CC2)c2nc(N3CCNCC3)n(Cc3cc(C)c(F)c(C)c3)c2c1 [Example 201, 1-(4-fluoro-3,5-dimethylbenzyl)-6-methyl-4-(2-(4-methylpiperazin-1-yl)ethoxy)-2-(piperazin-1-yl)-1H-benzo[d]imidazole] | 0.5 to 1 µM | < 1 µM |
| Cc1cc(OCCN(C)C)c2nc(N3CCNCC3)n(Cc3cc(C)c(F)c(C)c3)c2c1 [Example 203, 2-((1-(4-fluoro-3,5-dimethylbenzyl)-6-methyl-2-(piperazin-1-yl)-1H-benzo[d]imidazol-4-yl)oxy)-N,N-dimethylethan-1-amine] | 0.5 to 1 µM | < 1 µM |
| Cc1cc(OC2CCOC2)c2nc(N3CCNCC3)n(Cc3cc(C)c(F)c(C)c3)c2c1 (stereo not shown) [Example 204, 1-(4-fluoro-3,5-dimethylbenzyl)-6-methyl-2-(piperazin-1-yl)-4-((tetrahydrofuran-3-yl)oxy)-1H-benzo[d]imidazole] | 1 to 5 µM | < 1 µM |
| Cc1cc(Cn2c(N3CCNCC3)nc3c(OC4CCN(C)CC4)cccc32)ccc1F [Example 205, 1-(4-fluoro-3-methylbenzyl)-4-((1-methylpiperidin-4-yl)oxy)-2-(piperazin-1-yl)-1H-benzo[d]imidazole] | 1 to 5 µM | < 1 µM |
| Cc1cc(Cn2c(N3CCNCC3)nc3c(OC4CCNC4)cccc32)ccc1F (stereo not shown) [Example 206, 1-(4-fluoro-3-methylbenzyl)-2-(piperazin-1-yl)-4-(pyrrolidin-3-yloxy)-1H-benzo[d]imidazole] | > 5 µM | < 1 µM |
| Cc1cc(Cn2c(NCCN)nc3c(OCCN4CCCC4)cccc32)ccc1F [Example 207, N^1-(1-(4-fluoro-3-methylbenzyl)-4-(2-(pyrrolidin-1-yl)ethoxy)-1H-benzo[d]imidazol-2-yl)ethane-1,2-diamine] | 1 to 5 µM | < 1 µM |
| Cc1cc(Cn2c(N3CCNCC3)nc3c(OCCN4CCCC4)cccc32)ccc1F [Example 208, 1-(4-fluoro-3-methylbenzyl)-2-(piperazin-1-yl)-4-(2-(pyrrolidin-1-yl)ethoxy)-1H-benzo[d]imidazole] | > 5 µM | < 1 µM |
| Cc1cc(Cn2c(N3CCNCC3)nc3c(OCCN4CCN(C)CC4)cccc32)ccc1F [Example 209, 1-(4-fluoro-3-methylbenzyl)-4-(2-(4-methylpiperazin-1-yl)ethoxy)-2-(piperazin-1-yl)-1H-benzo[d]imidazole] | > 5 µM | < 1 µM |
| Cc1cc(Cn2c(N3CCNCC3)nc3c(OCCN(C)C)cccc32)ccc1F [Example 210, 2-((1-(4-fluoro-3-methylbenzyl)-2-(piperazin-1-yl)-1H-benzo[d]imidazol-4-yl)oxy)-N,N-dimethylethan-1-amine] | > 5 µM | < 1 µM |
| Cc1cc2c(cc1C)N(Cc1ccc(F)c(Cl)c1)C1=NCCCN12 [Example 213, 10-(3-chloro-4-fluorobenzyl)-7,8-dimethyl-2,3,4,10-tetrahydrobenzo[4,5]imidazo[1,2-a]pyrimidine] | > 5 µM | 1 to 5 µM |
| Fc1ccc(CN2C3=NCCCN3c3cc(Cl)ccc32)cc1Cl [Example 214, 7-chloro-10-(3-chloro-4-fluorobenzyl)-2,3,4,10-tetrahydrobenzo[4,5]imidazo[1,2-a]pyrimidine] | > 5 µM | 30 to 100 µM |
| Cc1cc2c(nc(N3CC(CN)C3)n2Cc2ccc(F)c(C)c2)c(-c2ccccc2F)n1 [Example 216, (1-(1-(4-fluoro-3-methylbenzyl)-4-(2-fluorophenyl)-6-methyl-1H-imidazo[4,5-c]pyridin-2-yl)azetidin-3-yl)methanamine] | 0.5 to 1 µM | < 1 µM |
| Cc1cc2c(nc(N3CCNCC3)n2Cc2ccc(F)c(C)c2)c(-c2ccccc2F)n1 [Example 217, 1-(4-fluoro-3-methylbenzyl)-4-(2-fluorophenyl)-6-methyl-2-(piperazin-1-yl)-1H-imidazo[4,5-c]pyridine] | > 5 µM | 1 to 5 µM |

Other lines, results leading:

| Ki (Son of Sevenless (SOS)) | EC50 [1] | SMILES |
| --- | --- | --- |
| > 5 µM | 5 to 30 µM | Cc1cc2c(nc(N3CCNCC3)n2Cc2ccc(F)c(C)c2)c(Cl)n1 [Example 218, 4-chloro-1-(4-fluoro-3-methylbenzyl)-6-methyl-2-(piperazin-1-yl)-1H-imidazo[4,5-c]pyridine] |
| > 5 µM | 5 to 30 µM | Cc1cc2c(nc(N3CCNCC3)n2Cc2ccc(F)c(C)c2)c(-c2ccccc2C(C)C)n1 [Example 219, 1-(4-fluoro-3-methylbenzyl)-4-(2-isopropylphenyl)-6-methyl-2-(piperazin-1-yl)-1H-imidazo[4,5-c]pyridine] |
| > 5 µM | 5 to 30 µM | Cc1cc2c(nc(NCCN)n2Cc2ccc(F)c(C)c2)c(-c2ccccc2C)n1 [Example 224, N^1-(1-(4-fluoro-3-methylbenzyl)-6-methyl-4-(o-tolyl)-1H-imidazo[4,5-c]pyridin-2-yl)ethane-1,2-diamine] |
| > 5 µM | 5 to 30 µM | Cc1cc2c(nc(N3CCNCC3)n2Cc2ccc(F)c(C)c2)c(-c2ccccc2C)n1 [Example 225, 1-(4-fluoro-3-methylbenzyl)-6-methyl-2-(piperazin-1-yl)-4-(o-tolyl)-1H-imidazo[4,5-c]pyridine] |
| > 5 µM | 5 to 30 µM | Cc1cc2c(nc(N3CCNCC3)n2Cc2ccc(F)c(C)c2)c(-c2ccncc2)n1 [Example 226, 1-(4-fluoro-3-methylbenzyl)-6-methyl-2-(piperazin-1-yl)-4-(pyridin-4-yl)-1H-imidazo[4,5-c]pyridine] |
| > 5 µM | 1 to 5 µM | Cc1cc2c(nc(N3CCNCC3)n2Cc2ccc(F)c(C)c2)c(-c2cccnc2C)n1 [Example 227, 1-(4-fluoro-3-methylbenzyl)-6-methyl-4-(2-methylpyridin-3-yl)-2-(piperazin-1-yl)-1H-imidazo[4,5-c]pyridine] |
| > 5 µM | 5 to 30 µM | COc1ccccc1-c1nc(C)cc2c1nc(N1CCNCC1)n2Cc1ccc(F)c(C)c1 [Example 228, 1-(4-fluoro-3-methylbenzyl)-4-(2-methoxyphenyl)-6-methyl-2-(piperazin-1-yl)-1H-imidazo[4,5-c]pyridine] |
